The text below walks through data of PMC9138545, “Incorporation of Oxidized Phenylalanine Derivatives into Insulin Signaling Relevant Proteins May Link Oxidative Stress to Signaling Conditions Underlying Chronic Insulin Resistance” (Biomedicines, 2022).

Molecules are shown by their SMILES.

One assay has as its system 3T3-L1 adipocytes. Kind of assay: Isotope glucose uptake (deoxy-D-glucose 2-[1 2-3H(N)]) in differentiated 3T3-L1 adipocytes. It is filed as cell-based, mouse. The settings on record: for insulin-induced glucose uptake, time dependence: 200 nmol/L insulin, cells grown 1, 2, 3, 4, 5 or 12 days with p-, n = 5–8; for insulin-induced glucose uptake, time dependence / insulin-induced glucose uptake, 5 mmol/L glucose: m- or o-Tyr; for insulin-induced glucose uptake, 5 mmol/L glucose: 2, 20, 200, 400 nmol/L insulin, medium with p-; for non-stimulated (basal) glucose uptake: no insulin, cells grown 1-12 days with m- or o-Tyr, vs. p-Tyr control. On the procedure:
(§1) Early passages of mouse embryo fibroblast (3T3-L1) (ATCC, Manassas, VA, US) were cultured in Dulbecco’s modified Eagle medium (DMEM, Sigma Aldrich, Budapest, Hungary, CAT number: D6046; Invitrogen, Waltham, MA, USA, CAT number: 41966-029) supplemented with 100 U/mL penicillin, 0.1 mg/mL streptomycin (Gibco, Budapest, Hungary, CAT number: 15070-063) and 10% heat-inactivated Fetal Bovine Serum (FBS, Gibco, CAT number: 16170-078), supplemented with 398 nM p-, m-, or o-Tyr (equimolar to the original p-Tyr content of the medium) purchased from Sigma (CAT number: para-Tyr: T8566, m-Tyr: T3629, o-Tyr: 93851). Media contained 25 or 5 mmol/L glucose (experiment dependent) pyruvate and L-glutamine. Cells were grown at 37 °C and 5% CO2. Adipocyte differentiation was achieved by DMEM supplemented with 10% FBS (Gibco, Csertex, Budapest, Hungary, CAT number: 10106-169) (FBS) and a […] insulin (Sigma Aldrich, Budapest, Hungary, CAT number: I 9278), […] isobuthylmethylxanthine (Sigma Aldrich, Budapest, Hungary, CAT number: I 5879), and 250 nmol/L dexamethasone (Sigma Aldrich, Budapest, Hungary, CAT number: 861871) containing cocktail. From day 4 onward, cultures were maintained in DMEM containing 1.5 μg/mL insulin and 10% FBS with a medium change every other day until experimental treatments were started. After 90% of the cell population reached the adipocyte phenotype, prior to all treatments, cells were incubated overnight in serum-deprived medium. Experimental treatment was performed in serum-deprived medium containing 200 or 400 nmol/L insulin, for 5 min.
Initially, cells were kept in glucose-free DMEM (Gibco, Csertex, Budapest, Hungary) for 30 min and then were treated with 2, 20, 200, or 400 nmol/L insulin for 100 min. Concurrently, 1 μCi/mL deoxy-D-glucose 2-[1 2-3H(N)] (3.7 × 104 Bq/mL) (Izotóp Intézet, Budapest, Hungary) was added to the plates for 100 min. After scraping the cells into the medium, they were centrifuged for 5 min at 1000 rpm. We dissolved the sediment in 70 μL of lysis buffer, then glucose uptake was determined by scintillation counting by measuring 30 μL of the sample, using a Beckman LS 5000 TD counter, in counts per minute (CPM), for five minutes each, with average activity was used as the outcome. Following freezing overnight at −70 °C, protein concentration was measured with a Hitachi spectrophotometer. Results were normalized for protein content.

A further assay concerns erythroblasts. The settings on record: ref [43]; cited from earlier work. The source says: Furthermore, m- and o-Tyr may have a role beyond being markers ROS attack. […] For example, we have described that patients on renal replacement therapy show a connection between plasma levels of o-Tyr and erythropoietin (EPO) resistance. In a further set of experiments, m- and o-Tyr in ...

Another assay relates to IRS-1 (Tyr612). Kind of assay: Western blot, activating phosphorylation of IRS-1 (Tyr612). It is filed as cell-based. Conditions: n = 4–8; for insulin-induced IRS-1 phosphorylation: 400 nmol/L insulin, adipocytes, HEK cells, podocytes, macrophages; for basal IRS-1 phosphorylation: without insulin, cells grown on o- or m-Tyr medium. On the procedure:
as §1
The conditionally immortalized human podocyte cell line (provided by Moin Saleem, University of Bristol, UK) was cultured in RPMI1640 medium (R8756, Sigma Aldrich, Budapest, Hungary) supplemented with 10% heat-inactivated FBS (16170-078, Gibco, Budapest, Hungary), insulin-transferrin-selenium supplement (41400-045, Gibco), 100 U/mL penicillin, 0.1 mg/mL streptomycin (P4333, Sigma), and […] (equimolar to the original p-Tyr content of the medium) para-, meta-, or ortho-Tyr. The cells were grown at 33 °C 5% CO2, and when they reached 40–60% confluency they were transferred to 37 °C to differentiate. Following the thermoswitching, cells were kept on RPMI1640 medium containing 2% FBS, antibiotics, and different tyrosines. Before every treatment, cells were incubated in serum-deprived medium overnight.
HEK-293 immortalized cell line (ATCC, Manassas, VA, USA) of epithelial morphology and the J774A.1 mouse BALB/C monocyte-macrophage cell lines (91051511-1VL, Sigma Aldrich, Budapest, Hungary) were cultured in Petri dishes with a medium composed of Dulbecco’s modified Eagle’s medium (DMEM, Sigma Aldrich, Budapest, Hungary, CAT number: D6046, Invitrogen, CAT number: 41966-029), with a 10% heat-inactivated FBS supplementation (16170-078, Gibco), insulin-transferrin-selenium supplement (41400-045, Gibco, Budapest, Hungary,), 100 U/mL penicillin and 0.1 mg/mL streptomycin (P4333, Sigma) and 398 nM para (5 and 25 mmol/L), meta-, or ortho-Tyr (T8566, T3629, 93851, Sigma). Before treatment, cells were incubated in serum-deprived medium overnight as well. […]
The samples of lysates were vortexed and centrifuged (10 min, 13,000 rpm, at 4 °C). Protein content of the samples was determined by the Lowry method using bovine serum albumin as a standard. […]

For the compound `NC(Cc1ccccc1O)C(=O)O` (stereo not drawn) [o-Tyr, ortho-tyrosine], in the assay with 3T3-L1 adipocytes, the “insulin-induced glucose uptake, time dependence” value is on record as “no significant effect”; the “insulin-induced glucose uptake, 5 mmol/L glucose” value is on record as “failed to induce the glucose uptake”; the “non-stimulated (basal) glucose uptake” value is on record as “lower than that of the p-Tyr control”. Moreover, the “EPO-dependent proliferation of erythroblasts” value with erythroblasts is “inhibited the EPO-dependent proliferation of erythroblasts, in a time- and dose-dependent manner”. Also, in the assay on IRS-1 (Tyr612), the “insulin-induced IRS-1 phosphorylation” value is “could not be further raised by insulin treatment” and the “basal IRS-1 phosphorylation” value is listed as “either unchanged or higher”.

With `N[C@@H](Cc1cccc(O)c1)C(=O)O` [m-Tyr, meta-tyrosine], in the assay with 3T3-L1 adipocytes, the “insulin-induced glucose uptake, time dependence” value was “no significant effect”; the “insulin-induced glucose uptake, 5 mmol/L glucose” value was “failed to induce the glucose uptake”; the “non-stimulated (basal) glucose uptake” value is listed as “lower than that of the p-Tyr control”. Moreover, the “EPO-dependent proliferation of erythroblasts” value in the assay on erythroblasts is “inhibited the EPO-dependent proliferation of erythroblasts, in a time- and dose-dependent manner”. Further, in the assay with IRS-1 (Tyr612), the “insulin-induced IRS-1 phosphorylation” value is reported as “could not be further raised by insulin treatment” and the “basal IRS-1 phosphorylation” value is listed as “either unchanged or higher”.
